We go through one substance from patent publication US20200291082A1, “PREVENTION AND TREATMENT OF GRAFT-VERSUS-HOST-DISEASE WITH DEFENSINS” (priority 2017, published 2020).

In data set [1] the test system is Dextran Sodium Sulphate induced colitis. Nature of the data set: therapeutic murine 14-day Dextran Sodium Sulphate induced colitis model (Example 5). It is filed as in vivo, C57BL/6 mice. The procedure: Anti-inflammatory effect of s.c. administration of hBD2 versus intraperitoneal anti TNF-α and intraperitoneal dexamethasone in a therapeutic, murine, 14-day, Dextran Sodium Sulphate induced colitis model.
70 male C57BL/6 mice housed in groups of five per cage were allocated to 7 different treatment groups. All animals had their drinking water supplemented with DSS 2% for 14 days to induce colitis resulting in significant inflammation and injury of the colonic tissue. The animals were treated with hBD2, 0.1 mg/kg s.c. BID; 0.1 mg/kg s.c. OD or 1.2 mg/kg i.v. […]
A disease activity index (DAI) scoring system was applied for clinical assessment (FIG. 7). The animals were sacrificed on day 14 and colon removed for histological assessment employing a histological scoring system (FIG. 8)

Data set [2] relates to bacteria at the surface of the intestinal mucosa. The data set can be described thus: anti microbial effect of orally administered defensins, mucin immunostaining and localization of bacteria by FISH (Example 16). It is filed as in vivo. Particulars: compared with mice on low fat or western diet. The procedure:
Anti microbial effect of orally administered defensins (HD5 and hBD-2).
Mucus immunostaining was paired with fluorescent in situ hybridization (FISH), as previously described in order to analyze bacteria localization at the surface of the intestinal mucosa. Briefly, colonic tissues (proximal colon, 2nd cm from the cecum) without fecal material were placed in methanol-Carnoy's fixative solution (60% methanol, 30% chloroform, 10% glacial acetic acid) for a minimum of 3 hours at room temperature. Tissues were then washed in methanol 2×30 min, ethanol 2×15 min, ethanol/xylene (1:1), 15 min and xylene 2×15 min, followed by embedding in Paraffin with a vertical orientation. Five pm sections were performed and dewax by preheating at 60° C. for 10 min, followed by xylene 60° C. for 10 min, xylene for 10 min and 99.5% ethanol for 10 minutes. Hybridization step was performed at 50° C. overnight with EUB338 probe (5′-GCTGCCTCCCGTAGGAGT-3′, with a 5′ labeling using Alexa 647) diluted to a final concentration of 10 μg/mL in hybridization buffer (20 mM Tris-HCl, pH 7.4, 0.9 M NaCl, 0.1% SDS, 20% formamide). After washing 10 min in wash buffer (20 mM Tris-HCl, pH 7.4, 0.9 M NaCl) and 3×10 min in PBS, PAP pen (Sigma-Aldrich) was used to mark around the section and block solution (5% fetal bovine serum in PBS) was added for 30 min at 4° C. […]

The subject of data set [3] is Dextran Sodium Sulphate induced colitis. Nature of the data set: prophylactic murine 10-day oral Dextran Sodium Sulphate induced colitis model, oral hBD2 versus oral prednisolone (Example 2). The format is in vivo, C57BL/6 mice. Particulars: for histological score, compared with prednisolone: all three oral hBD2 dose groups versus prednisolone 1 mg/kg; for body weight loss / body weight change: all three oral hBD2 dose levels (0.05, 0.5, 5 mg/kg twice per day), 10 days; for histological score: versus vehicle, Prednisolone 1 mg/kg twice per day p.o., oral hBD2 all doses. The procedure: Anti-inflammatory effect of oral administration of hBD2 versus oral prednisolone in a prophylactic murine, 10-day, oral Dextran Sodium Sulphate induced colitis model.
50 male C57BL/6 mice housed in groups of five per cage were allocated to 5 different treatment groups. All animals had their drinking water supplemented with DSS 2% for 7 days to induce colitis resulting in significant inflammation and injury of the colonic tissue. The animals were treated with oral hBD2 dosed at three different dose levels twice per day or prednisolone 1 mg/kg twice per day or PBS as vehicle for 10 days.
A disease activity index (DAI) scoring system was applied for clinical assessment (FIG. 7). The animals were sacrificed on day 10 and colon removed for histological assessment employing a histological scoring system (FIG. 8).

In data set [4] the test system is gut microbiota in high fat diet murine model. Nature of the data set: prophylactic treatment with defensins in murine high fat diet model, gut microbiota (Example 7). The format is in vivo, mice. The source says: Protection and preservation of gut microbiota by prophylactic treatment with defensins. Mice: Mice were housed in trios, 4 cages per group. Feed intake was registered daily just before lights were turned off at 6 pm. Individual mice were subjected to experimental procedures in altered order both group and cage wise. Mice were kept at room temperature under a 12-hour light/dark cycle at SPF standard conditions. Diets: For dosing, the average weight was estimated to be 25 grams per mouse. Mice eat approximately 3 grams of feed per mouse per day. Treatment regime: Mice were fed either a high fat diet (HFD) or a low fat (LF) control diet. The HFD contained 4 subgroups; 1 hBD2, 1 HD5, 1 hBD2/HD5 and 1 standard HFD without supplementation of defensins (FIG. 3). Defensin concentration was 1,2 mg hBD2 per kg mouse per day. HD5 was given in equimolar concentration to hBD2. […] Microbial analyses were carried out to study the microbiota of the intestine. Longitudinal 16S characterization was conducted on 4 paired samples from 60 mice, 240 samples in total. Each mouse was sampled prior to diet change, 1 week post diet change, 4 weeks post diet change and at termination, thus ensuring a thorough characterization of the faecal microbiota as a result of defensin treatment.

Where [5] appears, read: colon, prophylactic treatment with hBD2.

Entries after “also recorded” stand apart in the source; their conditions may differ. No end group written: not given here.

As for “human beta defensin 2 (GIGDPVTCLKSGAICHPVFCPRRYKQIGTCGLPGTKCCKKP; not fully specified (bridges); ends and bridges not checked; listed as Homo sapiens) [hBD2]”, the “histological score, compared with references” value in data set [1] (FIG. 16, hBD2 0.1 mg/kg versus dexamethasone 1 mg/kg and mouse anti TNF-α 300 μg/mouse) was “on par with dexamethasone 1 mg/kg and superior to mouse anti TNF-α 300 μg/mouse”. The “disease activity index (DAI)” value in data set [1] (hBD2 0.1 mg s.c. OD, Dexamethasone 1 mg/kg i.p. OD, day 8 to day 14) is reported as “statistically significant effect on DAI”; in data set [3] (high dose hBD2 5 mg/kg BID oral, compared with lower doses and Prednisolone), “significantly better effect on DAI”; in data set [3] (two lower dose levels of oral hBD2 (0.05, 0.5 mg/kg twice per day)), “statistically significant effect on DAI on par with Prednisolone”. Besides, the histological score entry in data set [1] (hBD2 0.1 mg/kg s.c. OD, Dexamethasone 1 mg/kg i.p. OD, colon day 14) is on record as “statistically significant effect on histological score; also recorded: statistical significant effect”; in data set [3], “statistically significant effect on histological score”; in data set [3] (listed as HBD2) it was “statistical significant effect”. Moreover, the “lysis zone, distance between intestinal wall and bacterial population” value in data set [2] is listed as “profound effect on the distance”. For the same substance, in data set [3] (FIG. 11, orally administered hBD2 versus prednisolone 1 mg/kg), the “disease activity index score, compared with prednisolone” value is given as “statistically significant superiority”. The “histological score, compared with prednisolone” value in data set [3] was “significantly better than Prednisolone”; in data set [3] (listed as HBD2), “on par with prednisolone 1 mg/kg”. Moreover, the “body weight loss / body weight change” value is on record as “dramatically reduced loos of body weight” in data set [3] and “weight preserving effect” in data set [3] (listed as HBD2hBD2). Further, in data set [3] (high dose group hBD2 5 mg/kg BID oral), the body weight loss result is “most pronounced”. Besides, the weight gain result in data set [4] (HFD plus hBD2 (1,2 mg per kg per day) versus HFD reference group, 10 week study period) is given as “gained significantly less weight”. The “abundance of Barnesiella” value in data set [4] (setting [5]) was “statistically significant increase in abundance of Barnesiella”. Moreover, the “abundance of Lactobacillaceae” value in data set [4] (setting [5]) is “trend towards lower abundance”. Also, in data set [4] (liver, HFD mice with prophylactic oral hBD-2 1.2 mg/kg daily, 1.2 mg/kg), the “steatosis (intra hepatocytic fat accumulation)” value is on record as “minimal intra hepatocyte fat accumulation; also recorded: minimal steatosis”. Further, the “microbial presence and abundance (unifrac analysis)” value in data set [4] (prophylactic oral defensins in high fat diet) is listed as “affected primarily the microbial presence”.
